From the supplement of paper PMC6045584
± gives the standard deviation of the averaged measurements.

Key:
[1] = compound: Cn1nnc2c(C(N)=O)ncn2c1=O [TEMOZOLOMIDE]; assay: surviving fraction relative to DMSO-only wells; higher = less growth inhibition; conditions: exposure time: 5 days
How it was run: (§1)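 Lines were retained only if, across three screens, replicate Pearson r was >0.7 and median Z' was >0.3. Viability was measured as CellTiter-Glo luminescence and reported as surviving fraction relative to the median of DMSO-only wells. Readings followed 10 minutes at room temperature, after log-phase tumour cells seeded at 250–500 per well in 384-well plates had been exposed, from 24 hours after seeding, continuously for five days to inhibitors at 0.5, 1, 5, 10, 50, 100, 500 and 1000 nM.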

[2] = compound: NS(=O)(=O)OC[C@@H]1C[C@@H](n2ccc3c(N[C@H]4CCc5ccccc54)ncnc32)C[C@@H]1O [MLN-4924]; assay: as above; conditions: exposure time: 5 days
How it was run: as §1

Test System	surviving fraction ([1]; 0.5 nM)	surviving fraction ([1]; 1 nM)	surviving fraction ([1]; 5 nM)	surviving fraction ([1]; 10 nM)	surviving fraction ([1]; 50 nM)	surviving fraction ([1]; 100 nM)	surviving fraction ([1]; 500 nM)	surviving fraction ([1]; 1000 nM)	surviving fraction ([2]; 0.5 nM)	surviving fraction ([2]; 1 nM)	surviving fraction ([2]; 5 nM)	surviving fraction ([2]; 10 nM)	surviving fraction ([2]; 50 nM)	surviving fraction ([2]; 100 nM)	surviving fraction ([2]; 500 nM)	surviving fraction ([2]; 1000 nM)
HCC1395 BREAST	1.03 ± 0.034	1.1 ± 0.081	1.1 ± 0.11	1.02 ± 0.078	1.04 ± 0.044	1.01 ± 0.14	0.922 ± 0.14	1.06 ± 0.03	1.07 ± 0.042	1.13 ± 0.05	1.01 ± 0.14	1.15 ± 0.14	1.1 ± 0.014	1.083 ± 0.008	0.989 ± 0.1	1.01 ± 0.053
NOS1 BONE	0.881 ± 0.071	1.01 ± 0.077	1.16 ± 0.11	1.16 ± 0.049	1.25 ± 0.099	1.15 ± 0.067	1.01 ± 0.076	1.06 ± 0.14	0.988 ± 0.11	1.02 ± 0.11	1.23 ± 0.23	1.29 ± 0.21	1.22 ± 0.1	1.04 ± 0.14	0.637 ± 0.083	0.506 ± 0.033
RDES SOFT TISSUE	1.11 ± 0.033	1.2 ± 0.06	1.14 ± 0.088	1.02 ± 0.12	1.15 ± 0.13	1.3 ± 0.14	1.27 ± 0.15	1.34 ± 0.17	1.24 ± 0.12	1.11 ± 0.22	1.29 ± 0.17	1.26 ± 0.081	0.952 ± 0.018	0.687 ± 0.067	0.0467 ± 0.0025	0.0413 ± 0.0021
MDAMB453 BREAST	1.07 ± 0.015	1.097 ± 0.0087	1.13 ± 0.016	1.1 ± 0.076	1.14 ± 0.058	1.09 ± 0.11	1.07 ± 0.075	1.09 ± 0.056	1.1 ± 0.038	1.08 ± 0.056	1.07 ± 0.07	1.1 ± 0.066	0.589 ± 0.019	0.493 ± 0.034	0.363 ± 0.045	0.304 ± 0.017
NY BONE	1.01 ± 0.033	1.05 ± 0.018	1.01 ± 0.066	1.09 ± 0.035	1.063 ± 0.004	1.09 ± 0.029	1.014 ± 0.0032	1.02 ± 0.013	1.05 ± 0.024	1.03 ± 0.02	1.18 ± 0.036	1.2 ± 0.04	0.82 ± 0.073	0.48 ± 0.0085	0.289 ± 0.0061	0.232 ± 0.0095
HOS BONE	0.994 ± 0.018	1.038 ± 0.0071	1.028 ± 0.0056	1.05 ± 0.042	1.04 ± 0.012	1.04 ± 0.012	1.04 ± 0.016	1.058 ± 0.0076	1.04 ± 0.026	1.02 ± 0.014	1.01 ± 0.042	0.949 ± 0.027	0.574 ± 0.033	0.337 ± 0.013	0.0287 ± 0.0011	0.0287 ± 0.0021
CAL51 BREAST	0.973 ± 0.038	1.05 ± 0.037	0.993 ± 0.02	1.07 ± 0.048	1.05 ± 0.057	1.06 ± 0.048	1.04 ± 0.032	1.02 ± 0.037	1.01 ± 0.035	1.01 ± 0.045	1.06 ± 0.025	1.01 ± 0.051	0.922 ± 0.067	0.702 ± 0.085	0.2 ± 0.022	0.128 ± 0.012
MDAMB134 BREAST	0.928 ± 0.0085	0.981 ± 0.033	0.926 ± 0.14	0.902 ± 0.15	0.975 ± 0.23	1.05 ± 0.17	0.953 ± 0.2	1.11 ± 0.08	0.904 ± 0.21	1.036 ± 0.0099	0.934 ± 0.12	0.731 ± 0.1	0.562 ± 0.14	0.393 ± 0.03	0.267 ± 0.0035	0.281 ± 0.005
KPD BONE	0.925 ± 0.022	0.955 ± 0.091	1.11 ± 0.079	1.01 ± 0.024	1.06 ± 0.088	1.074 ± 0.0076	0.983 ± 0.1	0.977 ± 0.043	0.9553 ± 0.0032	0.985 ± 0.028	1.04 ± 0.057	1.09 ± 0.094	0.921 ± 0.045	0.736 ± 0.048	0.239 ± 0.017	0.183 ± 0.022
MG63 BONE	0.964 ± 0.016	1.01 ± 0.036	1.03 ± 0.026	1.09 ± 0.035	1.01 ± 0.032	1.1 ± 0.047	0.997 ± 0.031	1.02 ± 0.032	1.03 ± 0.057	1.02 ± 0.046	1.07 ± 0.042	1.13 ± 0.054	0.4 ± 0.058	0.031 ± 0.0046	0.0287 ± 0.005	0.0287 ± 0.0023
SG28 HEADNECK	1.03 ± 0.044	1.18 ± 0.034	1.04 ± 0.013	1.1 ± 0.021	1.1 ± 0.087	1.05 ± 0.013	1.09 ± 0.14	1.09 ± 0.048	1.16 ± 0.16	1.16 ± 0.03	1.153 ± 0.0099	1.1 ± 0.032	0.726 ± 0.076	0.614 ± 0.1	0.296 ± 0.024	0.24 ± 0.0099
CME SYNOVIAL	1.31 ± 0.12	1.21 ± 0.12	1.24 ± 0.033	1.33 ± 0.18	1.34 ± 0.12	1.46 ± 0.064	1.34 ± 0.027	1.39 ± 0.065	1.19 ± 0.11	1.25 ± 0.15	1.32 ± 0.19	1.27 ± 0.07	0.692 ± 0.1	0.271 ± 0.026	0.273 ± 0.019	0.304 ± 0.023
MDAMB361 BREAST	0.914 ± 0.14	0.93 ± 0.017	0.917 ± 0.15	0.889 ± 0.1	0.983 ± 0.16	0.925 ± 0.037	0.945 ± 0.1	0.908 ± 0.042	0.894 ± 0.12	0.785 ± 0.028	0.829 ± 0.051	0.853 ± 0.1	0.735 ± 0.048	0.736 ± 0.061	0.594 ± 0.03	0.549 ± 0.042
MCF7 BREAST	0.889 ± 0.03	0.932 ± 0.023	0.934 ± 0.027	0.907 ± 0.054	0.922 ± 0.031	0.941 ± 0.037	0.958 ± 0.058	0.987 ± 0.034	0.889 ± 0.029	0.9226 ± 0.0022	0.935 ± 0.013	0.975 ± 0.027	0.641 ± 0.063	0.448 ± 0.062	0.265 ± 0.026	0.235 ± 0.016
CAL120 BREAST	0.948 ± 0.059	0.963 ± 0.033	0.99 ± 0.048	0.96 ± 0.075	0.976 ± 0.075	0.988 ± 0.016	0.988 ± 0.053	0.989 ± 0.025	0.961 ± 0.064	0.963 ± 0.028	0.952 ± 0.06	0.889 ± 0.068	0.667 ± 0.057	0.482 ± 0.036	0.14 ± 0.0021	0.121 ± 0.0033
HU09 BONE	0.817 ± 0.057	1.01 ± 0.042	1.08 ± 0.11	1.1 ± 0.014	0.964 ± 0.14	1.12 ± 0.051	0.966 ± 0.11	0.961 ± 0.076	0.948 ± 0.097	0.931 ± 0.076	1.04 ± 0.03	1.15 ± 0.048	1.01 ± 0.096	0.707 ± 0.052	0.296 ± 0.0049	0.26 ± 0.018
JIMT1 BREAST	1 ± 0.022	1.03 ± 0.032	1.021 ± 0.0081	1.07 ± 0.07	1 ± 0.022	1.04 ± 0.038	1.01 ± 0.025	1.06 ± 0.065	1.06 ± 0.04	1.016 ± 0.0069	1.06 ± 0.019	1.06 ± 0.017	1.09 ± 0.056	1.06 ± 0.062	0.764 ± 0.046	0.539 ± 0.073
SG31 HEADNECK	0.991 ± 0.11	1.07 ± 0.18	1.01 ± 0.15	1.04 ± 0.013	0.922 ± 0.062	1.17 ± 0.52	1.17 ± 0.24	1.12 ± 0.12	1.21 ± 0.15	1.37 ± 0.22	1.06 ± 0.24	1.12 ± 0.14	0.671 ± 0.12	0.553 ± 0.062	0.247 ± 0.0062	0.198 ± 0.034
SNU475 LIVER	1.004 ± 0.0081	1.01 ± 0.025	1.01 ± 0.051	1.04 ± 0.036	1.01 ± 0.034	1.06 ± 0.047	1.05 ± 0.053	1.03 ± 0.022	0.976 ± 0.031	1.04 ± 0.031	1.04 ± 0.023	1.04 ± 0.062	1.12 ± 0.059	1.08 ± 0.046	0.663 ± 0.036	0.53 ± 0.012
CASKI CERVIX	0.888 ± 0.013	0.88 ± 0.049	0.965 ± 0.044	1.01 ± 0.12	1 ± 0.023	1.04 ± 0.05	0.929 ± 0.072	1 ± 0.074	0.955 ± 0.033	0.961 ± 0.028	1.04 ± 0.084	1.03 ± 0.082	0.507 ± 0.017	0.301 ± 0.016	0.168 ± 0.013	0.153 ± 0.0032
